Data: ChEMBL document CHEMBL3098074, “Synthesis and tumor cell growth inhibitory activity of biotinylated annonaceous acetogenins” (Eur J Med Chem, 2014)

What was measured:
L1210 [1] = assay: Selectivity index, ratio of IC50 for mouse L1210 cells to IC50 for mouse P815 cells; assay type: functional
L1210 [2] = assay: Selectivity index, ratio of IC50 for mouse L1210 cells to IC50 for mouse 4T1 cells; assay type: functional
P815 [3] = assay: Cytotoxicity against mouse P815 cells expressing biotin receptor after 72 hrs by MTT assay; assay type: functional, cell-based; details: P815, 72 h
4T1 [4] = assay: Cytotoxicity against mouse 4T1 cells expressing biotin receptor after 72 hrs by MTT assay; assay type: functional, cell-based; details: 4T1, 72 h
L1210 [5] = assay: Cytotoxicity against mouse L1210 cells after 72 hrs by MTT assay; assay type: functional, cell-based; details: L1210, 72 h
[6] = Antitumor activity against mouse HepS cells xenografted in mouse assessed as tumor growth inhibition at 30 ug/kg; assay type: functional; details: read-out: TGI
P815 [7] = assay: Ratio of bullatacin IC50 to compound IC50 for mouse P815 cells expressing biotin receptor; assay type: functional
4T1 [8] = assay: Ratio of bullatacin IC50 to compound IC50 for mouse 4T1 cells expressing biotin receptor; assay type: functional
P815 [9] = assay: Ratio of squamocin IC50 to compound IC50 for mouse P815 cells expressing biotin receptor; assay type: functional
4T1 [10] = assay: Ratio of squamocin IC50 to compound IC50 for mouse 4T1 cells expressing biotin receptor; assay type: functional

| Structure (SMILES) | Ratio IC50 (L1210 [1]) | Ratio IC50 (L1210 [2]) | IC50 (P815 [3]) [nM] | IC50 (4T1 [4]) [nM] | IC50 (L1210 [5]) [nM] | inhibition in vivo at 0.03 mg/kg [6] [%] | Ratio IC50 (P815 [7]) | Ratio IC50 (4T1 [8]) | Ratio IC50 (P815 [9]) | Ratio IC50 (4T1 [10]) |
| --- | --- | --- | --- | --- | --- | --- | --- | --- | --- | --- |
| CCCCCC[C@H](O)CCC[C@H](OC(=O)CCCCCNC(=O)CCCC[C@@H]1SC[C@@H]2NC(=O)N[C@@H]21)[C@H]1CC[C@H]([C@H]2CC[C@H]([C@@H](CCCCCCCCCCCCC3=C[C@H](C)OC3=O)OC(=O)CCCCCNC(=O)CCCC[C@@H]3SC[C@@H]4NC(=O)N[C@@H]43)O2)O1 | 0.9 | 2.47 | 930 | 340 | 840 | – | – | – | – | – |
| CCCCCC[C@H](O)CCC[C@H](O)[C@H]1CC[C@H]([C@H]2CC[C@H]([C@H](O)CCCCCCCCCCCCC3=C[C@H](C)OC3=O)O2)O1 [SQUAMOCIN] | 0.068 | 3.75 | 19800 | 360 | 1350 | 78 | – | – | – | – |
| CCCCCC[C@H](O)CCC[C@H](OC(=O)CCCC[C@@H]1SC[C@@H]2NC(=O)N[C@@H]21)[C@H]1CC[C@H]([C@H]2CC[C@H]([C@H](O)CCCCCCCCCCCCC3=C[C@H](C)OC3=O)O2)O1 | <0.048 | 1.52 | > 20000 | 630 | 960 | – | – | – | – | – |
| CCCCCCCCCC[C@H](OC(=O)CCCCCNC(=O)CCCC[C@@H]1SC[C@@H]2NC(=O)N[C@@H]21)[C@H]1CC[C@H]([C@H]2CC[C@H]([C@H](O)CCCCCCCCCC[C@@H](O)CC3=C[C@H](C)OC3=O)O2)O1 | 2.66 | 29.46 | 410 | 37 | 1090 | – | 8 | 3 | – | – |
| CCCCCCCCCC[C@H](O)[C@H]1CC[C@H]([C@H]2CC[C@H]([C@H](O)CCCCCCCCCC[C@H](CC3=C[C@H](C)OC3=O)OC(=O)CCCC[C@@H]3SC[C@@H]4NC(=O)N[C@@H]43)O2)O1 | <0.071 | 2.18 | > 20000 | 650 | 1420 | – | – | – | – | – |
| CCCCCC[C@@H](CCC[C@H](OC(=O)CCCCCNC(=O)CCCC[C@@H]1SC[C@@H]2NC(=O)N[C@@H]21)[C@H]1CC[C@H]([C@H]2CC[C@H]([C@H](O)CCCCCCCCCCCCC3=C[C@H](C)OC3=O)O2)O1)OC(=O)CCCCCNC(=O)CCCC[C@@H]1SC[C@@H]2NC(=O)N[C@@H]21 | <0.059 | 0.63 | > 20000 | 1870 | 1180 | – | – | – | – | – |
| CCCCCCCCCC[C@H](OC(=O)CCCCCNC(=O)CCCC[C@@H]1SC[C@@H]2NC(=O)N[C@@H]21)[C@H]1CC[C@H]([C@H]2CC[C@H]([C@H](O)CCCCCCCCCC[C@H](CC3=C[C@H](C)OC3=O)OC(=O)CCCCCNC(=O)CCCC[C@@H]3SC[C@@H]4NC(=O)N[C@@H]43)O2)O1 | 1.96 | 26.73 | 750 | 55 | 1470 | – | – | – | – | – |
| CCCCCC[C@@H](CCC[C@H](O)[C@H]1CC[C@H]([C@H]2CC[C@H]([C@@H](CCCCCCCCCCCCC3=C[C@H](C)OC3=O)OC(=O)CCCCCNC(=O)CCCC[C@@H]3SC[C@@H]4NC(=O)N[C@@H]43)O2)O1)OC(=O)CCCCCNC(=O)CCCC[C@@H]1SC[C@@H]2NC(=O)N[C@@H]21 | 1.05 | 22.57 | 750 | 35 | 790 | – | – | – | >26 | >10 |
| CCCCCCCCCC[C@H](O)[C@H]1CC[C@H]([C@H]2CC[C@H]([C@H](O)CCCCCCCCCC[C@H](CC3=C[C@H](C)OC3=O)OC(=O)CCCCCNC(=O)CCCC[C@@H]3SC[C@@H]4NC(=O)N[C@@H]43)O2)O1 | 2.39 | 39.62 | 880 | 53 | 2100 | – | – | – | – | – |
| CCCCCCCCCC[C@H](O)[C@H]1CC[C@H]([C@H]2CC[C@H]([C@@H](CCCCCCCCCC[C@@H](O)CC3=C[C@H](C)OC3=O)OC(=O)CCCC[C@@H]3SC[C@@H]4NC(=O)N[C@@H]43)O2)O1 | 0.88 | 32.62 | 1550 | 42 | 1370 | – | – | – | – | – |
| CCCCCCCCCC[C@@H](O)[C@@H]1CC[C@@H]([C@@H]2CC[C@@H]([C@H](O)CCCCCCCCCC(O)CC3=CC(C)OC3=O)O2)O1 (stereo not given in full) [BULLATACIN] | 0.67 | 21.09 | 3480 | 110 | 2320 | – | – | – | – | – |
| CCCCCCCCCC[C@H](OC(=O)CCCC[C@@H]1SC[C@@H]2NC(=O)N[C@@H]21)[C@H]1CC[C@H]([C@H]2CC[C@H]([C@H](O)CCCCCCCCCC[C@@H](O)CC3=C[C@H](C)OC3=O)O2)O1 | <0.29 | 3.47 | > 20000 | 1670 | 5790 | – | – | – | – | – |
| CCCCCC[C@H](O)CCC[C@H](O)[C@H]1CC[C@H]([C@H]2CC[C@H]([C@@H](CCCCCCCCCCCCC3=C[C@H](C)OC3=O)OC(=O)CCCCCNC(=O)CCCC[C@@H]3SC[C@@H]4NC(=O)N[C@@H]43)O2)O1 | 0.48 | 14.94 | 2410 | 77 | 1150 | – | – | – | – | – |
| CCCCCC[C@H](O)CCC[C@H](O)[C@H]1CC[C@H]([C@H]2CC[C@H]([C@@H](CCCCCCCCCCCCC3=C[C@H](C)OC3=O)OC(=O)CCCC[C@@H]3SC[C@@H]4NC(=O)N[C@@H]43)O2)O1 | <0.036 | 0.25 | > 20000 | 2910 | 720 | – | – | – | – | – |
| CCCCCCCCCC[C@H](O)[C@H]1CC[C@H]([C@H]2CC[C@H]([C@@H](CCCCCCCCCC[C@@H](O)CC3=C[C@H](C)OC3=O)OC(=O)CCCCCNC(=O)CCCC[C@@H]3SC[C@@H]4NC(=O)N[C@@H]43)O2)O1 | <0.092 | 6.1 | > 20000 | 300 | 1830 | – | – | – | – | – |
| CCCCCC[C@@H](CCC[C@H](O)[C@H]1CC[C@H]([C@H]2CC[C@H]([C@H](O)CCCCCCCCCCCCC3=C[C@H](C)OC3=O)O2)O1)OC(=O)CCCCCNC(=O)CCCC[C@@H]1SC[C@@H]2NC(=O)N[C@@H]21 | <0.034 | 0.1 | > 20000 | 6570 | 680 | – | – | – | – | – |
| CCCCCC[C@H](O)CCC[C@H](OC(=O)CCCCCNC(=O)CCCC[C@@H]1SC[C@@H]2NC(=O)N[C@@H]21)[C@H]1CC[C@H]([C@H]2CC[C@H]([C@H](O)CCCCCCCCCCCCC3=C[C@H](C)OC3=O)O2)O1 | <0.069 | 0.9 | > 20000 | 1540 | 1380 | – | – | – | – | – |
| CCCCCCCCCC[C@H](O)[C@H]1CC[C@H]([C@H]2CC[C@H]([C@@H](CCCCCCCCCC[C@H](CC3=C[C@H](C)OC3=O)OC(=O)CCCCCNC(=O)CCCC[C@@H]3SC[C@@H]4NC(=O)N[C@@H]43)OC(=O)CCCCCNC(=O)CCCC[C@@H]3SC[C@@H]4NC(=O)N[C@@H]43)O2)O1 | <0.1 | 1.92 | > 20000 | 1060 | 2040 | – | – | – | – | – |
| CCCCCC[C@@H](CCC[C@H](OC(=O)CCCC[C@@H]1SC[C@@H]2NC(=O)N[C@@H]21)[C@H]1CC[C@H]([C@H]2CC[C@H]([C@H](O)CCCCCCCCCCCCC3=C[C@H](C)OC3=O)O2)O1)OC(=O)CCCC[C@@H]1SC[C@@H]2NC(=O)N[C@@H]21 | <0.28 | 19.62 | > 20000 | 290 | 5690 | – | – | – | – | – |
| CCCCCC[C@@H](CCC[C@H](O)[C@H]1CC[C@H]([C@H]2CC[C@H]([C@H](O)CCCCCCCCCCCCC3=C[C@H](C)OC3=O)O2)O1)OC(=O)CCCC[C@@H]1SC[C@@H]2NC(=O)N[C@@H]21 | 0.62 | 16.94 | 1340 | 49 | 830 | – | – | – | – | – |
| CCCCCC[C@@H](CCC[C@H](O)[C@H]1CC[C@H]([C@H]2CC[C@H]([C@@H](CCCCCCCCCCCCC3=C[C@H](C)OC3=O)OC(=O)CCCC[C@@H]3SC[C@@H]4NC(=O)N[C@@H]43)O2)O1)OC(=O)CCCC[C@@H]1SC[C@@H]2NC(=O)N[C@@H]21 | <0.063 | 0.26 | > 20000 | 4870 | 1250 | – | – | – | – | – |
